Assay [1] concerns ISC-enriched organoids. Briefly: Primary screen, 384-well 2.5-D organoid differentiation (ENR+CD, 6 days): basal lysozyme secretion (LYZ.NS). The assay is classed as cell-based, murine. To be noted: for Dose.FC.LYZ.NS: primary screen, FC vs plate median; for Z.LYZ.NS: standard z score of FC. The source says:
(§1) High-throughput screening.

Assay [2] concerns ISC-enriched organoids. Briefly: Primary screen, 384-well 2.5-D organoid differentiation (ENR+CD, 6 days): carbachol-induced lysozyme secretion (LYZ.S). The assay is classed as cell-based, murine. To be noted: primary screen, FC vs plate median.
From the text: as §1

Assay [3] deals with ISC-enriched organoids. Briefly: Primary screen, 384-well 2.5-D organoid differentiation (ENR+CD, 6 days, Target Selective Inhibitor Library, vs whole-plate median): ATP (CellTiter-Glo 3D, CTG). The following applies: for Dose.FC.CTG: primary screen, FC vs plate median; for Z.CTG: standard z score of FC. On the technique in general: Cellular ATP, detected with luciferase, serves as a proxy for viable cell number.

Data on four compounds can be found in patent US20230398130A1, “METHODS AND COMPOSITIONS FOR DIFFERENTIATING STEM CELLS” (Massachusetts Institute of Technology, priority 2020, published 2023).

With `Cc1cnc(-c2cc(N3CCN(C(=O)CCS(C)(=O)=O)CC3)ncc2Cl)c(C)c1` [PF-5274857], the Dose.FC.LYZ.NS in assay [1] (Dose 0.08 uM) is 0.078 log 2 fold change; in assay [1] (Dose 0.40 uM), −0.029 log 2 fold change; in assay [1] (Dose 2.00 uM), 0.011 log 2 fold change; in assay [1] (Dose 10.00 uM), 0.074 log 2 fold change. Also, the Z.LYZ.NS in assay [1] (Dose 0.08 uM) is given as 0.683; in assay [1] (Dose 0.40 uM), −0.256; in assay [1] (Dose 2.00 uM) it was 0.094; in assay [1] (Dose 10.00 uM) it was 0.642. For the same compound, the Dose.FC.LYZ.S in assay [2] (Dose 0.08 uM) is given as 0.187 log 2 fold change; in assay [2] (Dose 0.40 uM), −0.034 log 2 fold change; in assay [2] (Dose 2.00 uM), 0.042 log 2 fold change; in assay [2] (Dose 10.00 uM) it was 0.076 log 2 fold change. Further, the Dose.FC.CTG in assay [3] (Dose 0.08 uM) is recorded as −0.101 log 2 fold change; in assay [3] (Dose 0.40 uM) it was −0.040 log 2 fold change; in assay [3] (Dose 2.00 uM), 0.055 log 2 fold change; in assay [3] (Dose 10.00 uM), −0.076 log 2 fold change. In addition, the Z.CTG in assay [3] (Dose 0.08 uM) is −0.242; in assay [3] (Dose 0.40 uM) it was −0.096; in assay [3] (Dose 2.00 uM) it was 0.131; in assay [3] (Dose 10.00 uM) it was −0.183.
As to `COc1ccccc1S(=O)(=O)Nc1ccc2c(c1)CN(C)C(=O)N2` [PFI-1 (PF-6405761)], the Dose.FC.LYZ.NS in assay [1] (Dose 0.08 uM) was 0.062 log 2 fold change; in assay [1] (Dose 0.40 uM), 0.079 log 2 fold change; in assay [1] (Dose 2.00 uM), −0.098 log 2 fold change; in assay [1] (Dose 10.00 uM) it was −0.066 log 2 fold change. Further, the Z.LYZ.NS was 0.538 in assay [1] (Dose 0.08 uM), 0.691 in assay [1] (Dose 0.40 uM), −0.852 in assay [1] (Dose 2.00 uM) and −0.573 in assay [1] (Dose 10.00 uM). In addition, the Dose.FC.LYZ.S in assay [2] (Dose 0.08 uM) is 0.061 log 2 fold change; in assay [2] (Dose 0.40 uM) it was 0.104 log 2 fold change; in assay [2] (Dose 2.00 uM), −0.117 log 2 fold change; in assay [2] (Dose 10.00 uM) it was −0.194 log 2 fold change. Also, the Dose.FC.CTG was 0.142 log 2 fold change in assay [3] (Dose 0.08 uM), 0.390 log 2 fold change in assay [3] (Dose 0.40 uM), 0.322 log 2 fold change in assay [3] (Dose 2.00 uM) and −0.389 log 2 fold change in assay [3] (Dose 10.00 uM). Further, the Z.CTG is 0.340 in assay [3] (Dose 0.08 uM), 0.931 in assay [3] (Dose 0.40 uM), 0.770 in assay [3] (Dose 2.00 uM) and −0.929 in assay [3] (Dose 10.00 uM).
Consider `COc1cc(OC)c(NC(=O)Nc2cc(C)on2)cc1Cl` [PNU-120596], for which the Dose.FC.LYZ.NS is reported as 0.108 log 2 fold change in assay [1] (Dose 0.08 uM), −0.011 log 2 fold change in assay [1] (Dose 0.40 uM), 0.068 log 2 fold change in assay [1] (Dose 2.00 uM) and −0.060 log 2 fold change in assay [1] (Dose 10.00 uM). Further, the Z.LYZ.NS in assay [1] (Dose 0.08 uM) is given as 0.944; in assay [1] (Dose 0.40 uM), −0.098; in assay [1] (Dose 2.00 uM), 0.594; in assay [1] (Dose 10.00 uM), −0.525. Moreover, the Dose.FC.LYZ.S is reported as 0.058 log 2 fold change in assay [2] (Dose 0.08 uM), 0.081 log 2 fold change in assay [2] (Dose 0.40 uM), 0.065 log 2 fold change in assay [2] (Dose 2.00 uM) and −0.049 log 2 fold change in assay [2] (Dose 10.00 uM). The Dose.FC.CTG in assay [3] (Dose 0.08 uM) was −0.079 log 2 fold change; in assay [3] (Dose 0.40 uM) it was 0.085 log 2 fold change; in assay [3] (Dose 2.00 uM), 0.114 log 2 fold change; in assay [3] (Dose 10.00 uM), 0.138 log 2 fold change. For the same compound, the Z.CTG in assay [3] (Dose 0.08 uM) is listed as −0.188; in assay [3] (Dose 0.40 uM), 0.204; in assay [3] (Dose 2.00 uM), 0.271; in assay [3] (Dose 10.00 uM), 0.330.
Turning to `CC(C)(C)n1nc(-c2ccc(Cl)cc2)c2c(N)ncnc21` [PP2], the Dose.FC.LYZ.NS is 0.033 log 2 fold change in assay [1] (Dose 0.08 uM), 0.012 log 2 fold change in assay [1] (Dose 0.40 uM), 0.270 log 2 fold change in assay [1] (Dose 2.00 uM) and −0.027 log 2 fold change in assay [1] (Dose 10.00 uM). The Z.LYZ.NS is recorded as 0.285 in assay [1] (Dose 0.08 uM), 0.104 in assay [1] (Dose 0.40 uM), 2.354 in assay [1] (Dose 2.00 uM) and −0.235 in assay [1] (Dose 10.00 uM). Further, the Dose.FC.LYZ.S was 0.058 log 2 fold change in assay [2] (Dose 0.08 uM), 0.145 log 2 fold change in assay [2] (Dose 0.40 uM), 0.113 log 2 fold change in assay [2] (Dose 2.00 uM) and 0.027 log 2 fold change in assay [2] (Dose 10.00 uM). Moreover, the Dose.FC.CTG in assay [3] (Dose 0.08 uM) is listed as −0.693 log 2 fold change; in assay [3] (Dose 0.40 uM) it was 0.130 log 2 fold change; in assay [3] (Dose 2.00 uM), −0.382 log 2 fold change; in assay [3] (Dose 10.00 uM), −0.246 log 2 fold change. In addition, the Z.CTG is −1.655 in assay [3] (Dose 0.08 uM), 0.312 in assay [3] (Dose 0.40 uM), −0.913 in assay [3] (Dose 2.00 uM) and −0.587 in assay [3] (Dose 10.00 uM).
